Reference: PubChem BioAssay AID248 (DTP/NCI, 2004)
Several values for one entry are separate records, joined by “and”; a condition that tells them apart may be missing. Equal entries are not always repeated. Inconclusive results and toxic doses are left out. Rule as the data show it: active = T/C of 150% or more; inactive = T/C below 125%.

Test system: L1210 leukemia ip in BDF1 mice, survival T/C
Test: NCI In Vivo Anticancer Drug Screen. Data for tumor model L1210 Leukemia (intraperitoneal) in B6D2F1 (BDF1) mice
Details: endpoint: mean survival time, higher = longer survival
In short: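 Each compound was tested against a transplantable tumor grown in mice. The endpoint was survival, with treated animals benchmarked against vehicle controls as a simple ratio.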

[1] = dose: 100.0 mg/kg/injection, schedule: Q04DX003 (ip), vehicle: saline
[2] = dose: 200.0 mg/kg/injection, schedule: Q04DX003 (ip), vehicle: saline
[3] = dose: 100.0 mg/kg/injection, schedule: Q04DX003 (ip), vehicle: Klucel (hydroxypropylcellulose) (HPC)
[4] = dose: 200.0 mg/kg/injection, schedule: Q04DX003 (ip), vehicle: Klucel (hydroxypropylcellulose) (HPC)
[5] = dose: 400.0 mg/kg/injection, schedule: Q04DX003 (ip), vehicle: Klucel (hydroxypropylcellulose) (HPC)
[6] = dose: 50.0 mg/kg/injection, schedule: Q01DX001 (ip), vehicle: carboxymethylcellulose (CMC)
[7] = dose: 100.0 mg/kg/injection, schedule: Q01DX001 (ip), vehicle: carboxymethylcellulose (CMC)
[8] = dose: 200.0 mg/kg/injection, schedule: Q01DX001 (ip), vehicle: carboxymethylcellulose (CMC)
[9] = dose: 50.0 mg/kg/injection, schedule: Q01DX001 (ip), vehicle: other
[10] = dose: 100.0 mg/kg/injection, schedule: Q01DX009 (ip), vehicle: Klucel (hydroxypropylcellulose) (HPC)
[11] = dose: 200.0 mg/kg/injection, schedule: Q01DX009 (ip), vehicle: Klucel (hydroxypropylcellulose) (HPC)
[12] = dose: 100.0 mg/kg/injection, schedule: Q04DX002 (ip), vehicle: Klucel (hydroxypropylcellulose) (HPC)
[13] = dose: 400.0 mg/kg/injection, schedule: Q01DX001 (ip), vehicle: carboxymethylcellulose (CMC)

Measured: T/C

NC(CSC(c1ccccc1)(c1ccccc1)c1ccc(C(=O)O)cc1)C(=O)O.[Ga] (stereo not given)
inactive: dose: 100.0 mg/kg/injection, schedule: Q01DX001 (ip), vehicle: acetone 96 % of control | dose: 100.0 mg/kg/injection, schedule: Q01DX009 (ip), vehicle: saline 103 % of control | [1] 106 % of control | dose: 200.0 mg/kg/injection, schedule: Q01DX001 (ip), vehicle: acetone 98 % of control | dose: 200.0 mg/kg/injection, schedule: Q01DX009 (ip), vehicle: saline 90 % of control | [2] 97 % of control | dose: 400.0 mg/kg/injection, schedule: Q01DX001 (ip), vehicle: acetone 112 % of control | dose: 400.0 mg/kg/injection, schedule: Q01DX009 (ip), vehicle: saline 98 % of control | dose: 400.0 mg/kg/injection, schedule: Q04DX003 (ip), vehicle: saline 100 % of control

CCCCCCCCCCCCCCCOc1c(Cl)c(Cl)c(Cl)c(Cl)c1Cl
inactive: [3] 95 % of control | [4] 90 % of control | [5] 95 % of control

COc1cc2nc3occc3c(OC)c2c2c1OC(C(C)(C)O)C2 (stereo not given)
inactive: [6] 98 % of control | [7] 117 % of control | [8] 93 % of control

C[C@]12CCC(=O)C=C1CC[C@@H]1[C@@H]2[C@@H](O)C[C@@]2(C)[C@H]1CC[C@]2(O)C(=O)CO
inactive: dose: 12.0 mg/kg/injection, schedule: Q01DX015 (sc), vehicle: steriod suspending solution 100 % of control | dose: 25.0 mg/kg/injection, schedule: Q01DX015 (sc), vehicle: steriod suspending solution 100 % of control | dose: 50.0 mg/kg/injection, schedule: Q01DX015 (sc), vehicle: steriod suspending solution 102 % of control | dose: 100.0 mg/kg/injection, schedule: Q01DX001 (sc), vehicle: steriod suspending solution 102 % of control | dose: 100.0 mg/kg/injection, schedule: Q01DX Z (sc), vehicle: steriod suspending solution 101 % of control | dose: 200.0 mg/kg/injection, schedule: Q01DX001 (sc), vehicle: steriod suspending solution 108 % of control | dose: 200.0 mg/kg/injection, schedule: Q01DX Z (sc), vehicle: steriod suspending solution 102 % of control | dose: 400.0 mg/kg/injection, schedule: Q01DX001 (sc), vehicle: steriod suspending solution 108 % of control | dose: 400.0 mg/kg/injection, schedule: Q01DX Z (sc), vehicle: steriod suspending solution 102 % of control | dose: 800.0 mg/kg/injection, schedule: Q01DX Z (sc), vehicle: steriod suspending solution 94 % of control | dose: 1000.0 mg/kg/injection, schedule: Q01DX015 (sc), vehicle: steriod suspending solution 104 % of control

O=[N+]([O-])c1ccc(NS(=O)(=O)c2ccc(Cl)c(Cl)c2)cc1
inactive: dose: 12.5 mg/kg/injection, schedule: Q01DX001 (ip), vehicle: other 92 % of control | dose: 12.5 mg/kg/injection, schedule: Q01DX009 (ip), vehicle: gum acacia 101 % of control | dose: 12.5 mg/kg/injection, schedule: Q04DX003 (ip), vehicle: other 95 % of control | dose: 25.0 mg/kg/injection, schedule: Q01DX001 (ip), vehicle: other 97 % of control | dose: 25.0 mg/kg/injection, schedule: Q01DX009 (ip), vehicle: gum acacia 91 % of control | dose: 25.0 mg/kg/injection, schedule: Q04DX003 (ip), vehicle: other 94 % of control | [9] 97 % of control | dose: 50.0 mg/kg/injection, schedule: Q04DX003 (ip), vehicle: other 94 % of control

O=C(Nc1ccccc1)C(Br)c1ccccc1 (stereo not given)
inactive: [1] 91 % of control | [2] 90 % of control

CCOC(=O)CN(c1ccccc1-c1ccccc1)S(=O)(=O)c1ccc(C)cc1
inactive: [9] 92 % of control | dose: 100.0 mg/kg/injection, schedule: Q01DX001 (ip), vehicle: other 89 % of control | dose: 200.0 mg/kg/injection, schedule: Q01DX001 (ip), vehicle: other 101 % of control | dose: 400.0 mg/kg/injection, schedule: Q01DX001 (ip), vehicle: other 101 % of control

CCC(C)c1cc(CN(C)C)cc(C(C)CC)c1O (stereo not given)
inactive: dose: 12.5 mg/kg/injection, schedule: Q01DX009 (ip), vehicle: Klucel (hydroxypropylcellulose) (HPC) 105 % of control | dose: 25.0 mg/kg/injection, schedule: Q01DX009 (ip), vehicle: Klucel (hydroxypropylcellulose) (HPC) 105 % of control | dose: 50.0 mg/kg/injection, schedule: Q01DX009 (ip), vehicle: Klucel (hydroxypropylcellulose) (HPC) 96 % of control | [10] 102 % of control

CC(C)(C)C(=O)Cn1nnnc1C(=O)C(C)(C)C
inactive: dose: 50.0 mg/kg/injection, schedule: Q04DX003 (ip), vehicle: Klucel (hydroxypropylcellulose) (HPC) 105 % of control | dose: 100.0 mg/kg/injection, schedule: Q01DX001 (ip), vehicle: Klucel (hydroxypropylcellulose) (HPC) 105 % of control | [3] 103 % of control | dose: 200.0 mg/kg/injection, schedule: Q01DX001 (ip), vehicle: Klucel (hydroxypropylcellulose) (HPC) 108 % of control | [4] 100 % of control

Cc1cccc(C)c1NC(=O)Nc1ccc(Cl)c(Cl)c1
inactive: [10] 97 % of control | [3] 95 % of control | [11] 94 % of control | [4] 86 % of control | dose: 400.0 mg/kg/injection, schedule: Q01DX009 (ip), vehicle: Klucel (hydroxypropylcellulose) (HPC) 94 % of control | [5] 91 % of control

O=C(/C(=N/OCc1ccccc1)c1ccccc1)c1ccccc1
inactive: dose: 100.0 mg/kg/injection, schedule: Q01DX001 (ip), vehicle: saline 102 % of control | dose: 200.0 mg/kg/injection, schedule: Q01DX001 (ip), vehicle: saline 102 % of control | dose: 400.0 mg/kg/injection, schedule: Q01DX001 (ip), vehicle: saline 98 % of control

CCc1c(C#N)oc2ccc(O)cc12
inactive: [10] 96 % of control | [12] 95 % of control | [11] 91 % of control | dose: 200.0 mg/kg/injection, schedule: Q04DX002 (ip), vehicle: Klucel (hydroxypropylcellulose) (HPC) 101 % of control | dose: 400.0 mg/kg/injection, schedule: Q04DX002 (ip), vehicle: Klucel (hydroxypropylcellulose) (HPC) 95 % of control

CC(C)=CC(=O)C1C(=O)c2ccccc2C1=O
inactive: [6] 96 % of control | [7] 90 % of control

CCCCCCP(=O)(CCCC)CCCC
inactive: dose: 25.0 mg/kg/injection, schedule: Q04DX002 (ip), vehicle: Klucel (hydroxypropylcellulose) (HPC) 94 % of control | dose: 50.0 mg/kg/injection, schedule: Q04DX002 (ip), vehicle: Klucel (hydroxypropylcellulose) (HPC) 109 % of control | [12] 103 % of control and 109 % of control

CNC(=O)N(C)N
inactive: dose: 12.5 mg/kg/injection, schedule: Q01DX009 (ip), vehicle: saline 97 % of control | dose: 25.0 mg/kg/injection, schedule: Q01DX009 (ip), vehicle: saline 95 % of control | dose: 50.0 mg/kg/injection, schedule: Q01DX009 (ip), vehicle: saline 119 % of control

OC1COC(c2ccco2)OC1 (stereo not given) (tested in a mixture with another compound)
inactive: [10] 94 % of control | [3] 102 % of control | [11] 105 % of control | [4] 101 % of control | [5] 102 % of control

Oc1c2ccccc2cc2cnc3ccccc3c12
inactive: [7] 107 % of control | [8] 103 % of control | [13] 94 % of control

CN(C)C(=NN)N(C)C
inactive: dose: 50.0 mg/kg/injection, schedule: Q04DX003 (ip), vehicle: saline 105 % of control | [1] 100 % of control | [2] 100 % of control

CCOC(=O)c1cc(C)[nH]c1C
inactive: dose: 100.0 mg/kg/injection, schedule: Q01DX009 (ip), vehicle: gum acacia 100 % of control | dose: 200.0 mg/kg/injection, schedule: Q01DX009 (ip), vehicle: gum acacia 95 % of control | dose: 400.0 mg/kg/injection, schedule: Q01DX009 (ip), vehicle: gum acacia 105 % of control

C=CCc1ccc(OC(C)OCCOCCOCC)c(OC)c1 (stereo not given)
inactive: dose: 100.0 mg/kg/injection, schedule: Q04DX002 (ip), vehicle: saline 92 % of control | dose: 200.0 mg/kg/injection, schedule: Q04DX002 (ip), vehicle: saline 96 % of control | dose: 400.0 mg/kg/injection, schedule: Q04DX002 (ip), vehicle: saline 101 % of control

Cc1ccc2ccc(/C=N/Nc3ccc4cccc(O)c4n3)c(O)c2n1
inactive: [7] 88 % of control | [13] 88 % of control
